Reference: PubChem BioAssay AID624445 (Broad Institute, 2012)
Inconclusive results are not listed. The source made the active and inactive calls.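 How the source made its calls: active means fitted curve drops past -35% activity change at a concentration under twice the top valid tested dose; inconclusive means no clear call, values can overlap the other calls; inactive means the rest, including effects in the wrong direction.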

Tested on: 26S proteasome chymotrypsin-like activity (human)
Test: proteasome chymotrypsin-like activity inhibition in cells, dose response, mechanism study for HSF1 activator project, cell-based, U2OS, Proteasome-Glo luminescence, dry powder, set 2 (AID 624445)
Details: for activity change, negative = inhibition: at 38 µM (top of the series)

Row | activity change, negative = inhibition | AC35 [µM] | SMILES
1 | -30.5% (inactive) |  | O=C(Nc1nc(SCc2ccccc2)ns1)C1CC=CCC1 (stereo unspecified)
2 | -21.8% (inactive) |  | Cc1ccccc1CSc1nsc(N)n1
3 | -25.3% (inactive) |  | Cc1ccccc1CSc1nnc(N)s1
4 |  | 37.2 | Nc1nc(SCc2ccccc2)ns1
5 | -20.5% (inactive) |  | Nc1nc(SCc2ccccc2Cl)ns1
6 | 9.01% (inactive) |  | Cc1ccccc1CSc1n[nH]c(N)n1
7 | 2.27% (inactive) |  | Nc1nc(SCc2ccc(Cl)cc2Cl)ns1
8 |  | 35.2 | Cc1cccc(CSc2nsc(N)n2)c1
9 | -32.9% (inactive) |  | Nc1nc(SCc2ccc(F)cc2)ns1
10 |  | 30.4 | O=C(Nc1nc(SCc2ccccc2)ns1)C1CCC1
11 | -17.1% (inactive) |  | Nc1nc(S(=O)(=O)Cc2ccccc2)ns1
